Counter-ions that a name gives are not always drawn. Like-named read-outs stand apart in the source and are kept apart here.
What was measured:
BMP-2 [1] = assay: Real time PCR of BMP-2 gene expression in human MSC (Cells-to-Ct); format: cell-based; conditions: BMP-2 mRNA, hMSC, 5-10 μM, 24 hours, vs untreated
Procedure: Early passage human mesenchymal stem cells (MSC) were thawed from one frozen cryo-vial and seeded into two T-75 tissue culture flasks and incubated at 37° C. for 48 hours in Alpha MEM with 10% FBS. After three days and one re-feeding, the cells were trypsinized and re-suspended in pre-warmed media at 5×10^4 cells/mL to provide 5,000 cells per well in a 96 well plate and incubated overnight at 37° C. in 5% CO2.
Each well was washed in cold PBS, lysed at room temperature for five minutes, and stop reagent added to each well to stop the lysis reaction. The final lysate was kept cold at 4° C. and used immediately as the RNA template for the reverse transcription cDNA synthesis following the TAQMAN GENE EXPRESSION CELLS TO CT KIT instructions.
The cDNA synthesis was prepared on a separate sterile 96-well PCR plate and performed on the Step One Plus Real Time PCR System instrument (Applied Biosystems) with the programming set at 37° C. for 60 minutes and an inactivation hold of 95° C. for five minutes. The final cDNA reaction was kept cold and used as the template for the TAQMAN GENE Real-Time PCR step following the recommended instructions for TAQMAN GENE EXPRESSION CELLS TO CT KIT assay. […] Template cDNA's were added separately to respective individual wells in replicate samples.
The PCR was performed on the STEPONEPLUS Real-Time System instrument (Applied Biosystems). The amplification program consisted of 1 cycle of 95° C. with 10 minute hold (hot start) and followed by 50 cycles of 95° C. with 15-second annealing hold and 1-minute 60° C. specified acquisition hold.

BMP2 = assay: Quantitative PCR (TaqMan, ΔΔCt) of BMP2 in human mesenchymal stem cells; format: cell-based; conditions: Homo sapiens, Mesenchymal stem cells, BMP2 mRNA, hMSC, 10 μM, vs untreated, 18S reference, read-out: q-PCR Fold increase
Procedure: (§1) Human mesenchymal stem cells (LONZA, Catalog PT2501) were maintained in Mesenchymal stem cells basal media (MSCBM CAT#PT-3238). Early passage cells were plated in triplicate at 2×10^4 cells/cm^2 using six well tissue culture plates and grown in humidified 5% CO2 at 37° C. for 24 hours. Spent media was replaced by assay media of drugs to be tested in same media as above at 10 μM final concentration. Untreated cells were used as the control group. Total RNA were prepared using either TRI Reagent (Ambion, Cat. 9738), for subsequent TaqMan gene expression qPCR of BMP2. RNA concentration and integrity was assessed by absorbance 260/280 and electrophoresis in 1% Agarose with formaldehyde loading dye. For TaqMan gene expression, cDNA was synthesized from 2 μg of total RNA using the High Capacity cDNA Reverse Transcription Kit (Applied Biosystems, Cat. 4368814). The resulting cDNA were diluted 1:100 for TaqMan and amplified by real-time quantitative PCR. Gene-specific fluorescent labeled TaqMan primers for FAM-BMP2 (Applied Biosystems, Hs00154192.m1) and TaqMan reference VIC-18S ribosomal RNA (Applied Biosystems, 4310893E) were used to target gene of interest. A cocktail of universal master mix (Applied Biosystems, 4369016) were prepared individually for both set of primers which contained Taq Polymerase, dNTPs, and buffer. Template cDNA's were added separately to respective individual wells in triplicate samples. The PCR were performed on StepOne Plus Real Time System instrument (Applied Biosystems). The amplification program consisted of 1 cycle of 95° C. with 10 minute hold (hot start) followed by 50 cycles of 95° C. with 15 second annealing hold and 1 minute 60° C. specified acquisition hold. The Ct value of endogenous reference gene (i.e. 18 s) was used to control for input RNA and then used to normalize target gene (i.e. BMP2) tested from the same cDNA sample to calculate the Δ Ct, and then calibrated to an internal reference sample. Change in gene expression was determined by the expression ΔΔCt relative method.
18 compounds were confirmed positive by the more stringent qPCR techniques. […] Included in the tables is the target or common medical use for each compounds.

BMP-2 [2] = assay: Study II real time PCR, BMP-2 up-regulation in mesenchymal stem cells; format: cell-based, human; conditions: hMSC, 24 hour
Procedure: (§2) The testing procedure follows.
(§3) Cells based assays are done using 6 wells tissue culture plates, seeded with human mesenchymal stem cells (MSC) from Lonza, culture at 80% density. After seeding cells are treated with selected compounds at 10 μM, 5 μM and 2.5 μM for a 24 hour period, mRNA is collected using Qiagen kit RNAeasy kit and cDNA is prepared with same Qiagen kit, RT-PCR is done using kit from SABiosciences to measure gene expression for BMP2, 4 and 7 and run in Applied Biosystems Step One Plus. The protocol for mRNA isolation is described below.
(§4) Human mesenchymal stem cell growth medium passage 3 plated in a 6 well plate at 2.5×10^5 cells/well in hMSC Basal Medium+BulletKit (50 ml Growth Supplement, 10 ml L-Glutamine and 0.5 ml Gentamicin Sulfate Amphotericin-B) for 24 hrs. The compounds to be tested were added and after 24 hrs the media was aspirated, rinsed well once with PBS, and aspirated again. 350 ul of Lysis Buffer was added and the cells were stored at −20° C.
(§5) The lysate was homogenized by pipetting the lysate directly into a QIA shredder spin column placed in a 2-mL collection tube, and centrifuge for 2 min at full speed. 70% ethanol was added (1 vol. or […]) to the homogenized lysate (now at the bottom of the collection tube), and mixed well by pipetting. Up to 700 μL of the sample was transferred, including any precipitate that may have formed, to an RNeasy spin column placed in a 2-mL collection tube. This was centrifuged for 15 seconds at full speed. 700 μL of Buffer RW1 was added to the RNeasy spin column. This was centrifuged for 15 seconds at full speed to wash the spin column membrane.
(§6) 500 μL of Buffer RPE was added to the RNeasy spin column and centrifuged for 15 seconds at full speed. The flow through was discarded. 500 μL of Buffer RPE was added to the RNeasy spin column and centrifuged for 2 minutes at full speed to wash the spin column membrane. The RNeasy spin column was removed from the collection tube and the flow-through was discarded.
(§7) The RNeasy spin column was placed in a new 2-mL collection tube and centrifuged for 1 minute at full speed. The RNeasy spin column was removed from the collection tube, and the flow-through was discarded. The RNeasy spin column was placed in a new 1.5-mL collection tube. 30-50 μL of RNase-free water was added directly to the spin column membrane and this was centrifuged for 1 minute at full speed to elute the RNA.

BMP-4 = assay: Study II real time PCR, BMP-4 up-regulation in mesenchymal stem cells; format: cell-based, human; conditions: hMSC, 24 hour, 2.5, 5 and 10 μM tested
Procedure: as §2, §3, §4, §5, §6
The RNeasy spin column was placed in a new 2-mL collection tube and centrifuged for 1 minute at full speed. […]

BMP-7 = assay: Study II real time PCR, BMP-7 up-regulation in mesenchymal stem cells; format: cell-based, human; conditions: hMSC
Procedure: as §2, §3, §4, §5, §6, §7

[3] = system: human mesenchymal stem cells (MSC); format: cell-based; parameters: key: *: Dose caused cell death; conditions: hMSC, 24 hrs
BMP-2 [4] = assay: BMP-2 fold change of JHU library compounds, confirmed by qPCR; format: cell-based, human; conditions: JHU library compounds; non-treated = 1.00
Excerpt: To further verify the technique, a 2T3 mouse pre-osteoblast cell line derived from calvaria courtesy of Dr. Steve Harris, UTHSCSA, was utilized to visually screen the compounds of the BIOMOL library and JHU libraries, purchased from John Hopkins University including 2387 compounds (solution in wells). Specifically, Murine 2T3 were thawed from one frozen cryovial and re-seeded into two T-75 tissue culture flasks grown in Alpha MEM with 10% FBS, Glutamine, and Pen/Strip antibiotics. Cells were incubated in a humidified 37° C. under 5% CO2 for 48 hours or when cells reached 80% confluence. After reaching confluency, the 2T3 were trypsinized and resuspended in pre-warm growth media to a cell density of 5×10^4 cells/mL. Approximately 100 uL of cell suspension was seeded to a 96 well plate to give a final 5,000 cells per well. Plate was incubated overnight at 37° C. and spent media was aspirated and replace with 100 uL of growth media with 5-10 uM of presumptive drug compounds. A set of controls were untreated and treated with 10 uM of Lovastatin to be used as a visual reference morphological screening.
as §1, with “Total RNA were prepared using either TRI Reagent (Ambion, Cat. 9738), for subsequent TaqMan gene expression qPCR of BMP2.” left out, “Gene-specific fluorescent labeled TaqMan primers for FAM-BMP2 (Applied Biosystems, Hs00154192.m1) and TaqMan reference VIC-18S ribosomal RNA (Applied Biosystems, 4310893E) were used to target gene of interest.” left out, “The Ct value of endogenous reference gene (i.e. 18 s) was used to control for input RNA and then used to normalize target gene (i.e. BMP2) tested from the same cDNA sample to calculate the Δ Ct, and then calibrated to an internal reference sample.” left out
Included in the tables is the target or common medical use for each compounds.

[5] = positive control compounds (Table 1)

| Compound | RT PCR Fold increase (BMP-2 [1]; BIOMOL library (Table 2)) [fold] | fold induction at 10 µM (BMP2; BIOMOL library (Table 2)) | BMP-2 Fold Increase/Dose (BMP-2 [2]; 10 μM) | BMP-2 fold increases (in words) (BMP-2 [2]) | BMP-4 Fold Increase/Dose (BMP-4) | Fold change (BMP-2) (BMP-2 [4]) [fold] | other results |
| --- | --- | --- | --- | --- | --- | --- | --- |
| COc1ccc(CCN2CCC(Nc3nc4ccccc4n3Cc3ccc(F)cc3)CC2)cc1 [Astemizole] | 156.2 | 1 | ~7 fold | exhibit BMP-2 fold increases | None |  | BMP-2 Fold Increase/Dose (BMP-2 [2]; 5 μM): ~30 fold; BMP-7 Fold Increase/Dose (BMP-7; 2.5 μM, 24 hour): ~8/2.5 fold; BMP-7 fold increases (in words) (BMP-7; 24 hour): exhibit BMP-7 fold increases |
| CC(C)(C)c1ccc(C(=O)CCCN2CCC(OC(c3ccccc3)c3ccccc3)CC2)cc1 [Ebastine] |  |  | ~8/10 μM fold | exhibit BMP-2 fold increases | None |  | BMP-7 Fold Increase/Dose (BMP-7; 10 μM, 24 hour): ~3/10 fold; BMP-7 fold increases (in words) (BMP-7; 24 hour): exhibit BMP-7 fold increases; cell death ([3]; 10 uM): *Ebastine |
| COC(=O)Nc1nc2cc(C(=O)c3ccc(F)cc3)ccc2[nH]1 [Flubendazole] | 5.6 | 1.7 |  |  |  | 10.00 |  |
| COC(=O)c1ccc(O)c2nc3c(C=O)c(O)cc(O)c3nc12 [Lomofungin] | 32.6 | 14.2 |  |  |  | 26.00 |  |
| CCCOc1ccc2nc(NC(=O)OC)[nH]c2c1 [Oxibendazole] | 4.5 | 1.4 |  |  |  | 18.00 |  |
| CN(C)CCC(c1ccccc1)c1ccccn1 (centres unmarked) [Pheniramine] |  |  | ~2/10 μM fold | exhibit BMP-2 fold increases | None |  | BMP-7 Fold Increase/Dose (BMP-7; 24 hour, 2.5, 5 and 10 μM tested, no dose stated): None |
| CCN(CC)CCCC(C)Nc1c2ccc(Cl)cc2nc2ccc(OC)cc12 (centres unmarked) [Quinacrine] | 52.9 | 95 |  |  |  | 722.00 | cell death ([3]; 5 uM): *Quinacrine; cell death ([3]; 10 uM): *Quinacrine |
| CC[C@]1(O)C[C@@H]2CN(CCc3c([nH]c4ccccc34)[C@@](C(=O)OC)(c3cc4c(cc3OC)N(C)[C@H]3[C@@](O)(C(=O)OC)[C@H](OC(C)=O)[C@]5(CC)C=CCN6CC[C@]43[C@@H]65)C2)C1 [Vinblastine sulfate] |  |  |  |  |  | 64.00 | RT PCR Fold increase (BMP-2 [1]; [5]): 9.5 fold; fold induction at 10 µM (BMP2; [5]): 1.7 |
| CC[C@]1(O)C[C@H]2CN(CCc3c([nH]c4ccccc34)[C@@](C(=O)OC)(c3cc4c(cc3OC)N(C=O)[C@H]3[C@@](O)(C(=O)OC)[C@H](OC(C)=O)[C@]5(CC)C=CCN6CC[C@]43[C@@H]65)C2)C1 [Vincristine sulfate] |  |  |  |  |  | 57.00 | RT PCR Fold increase (BMP-2 [1]; [5]): 10.8 fold; fold induction at 10 µM (BMP2; [5]): 1.8 |
